Data reported in patent US10577349B2 (Sanford Burnham Prebys Medical Discovery Institute, priority 2015, dated 2020).

Tests used:
A375 = experiment: 48 h Cytotoxicity A375; type: cell-based; conditions: Homo sapiens, A-375
[1] = biological target: EmCV Cap-independent translation; experiment: In vitro translation assay, FF-EmCV-Ren construct, cap-independent (Ren luciferase); type: biochemical, rabbit reticulocyte lysates
Method in brief: (§1)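 Compounds were tested on bicistronic firefly/Renilla RNA in rabbit reticulocyte lysate, with 2 h translation at 30° C after 1 h compound pre-incubation. To rule out luciferase interference, compounds were also added after translation was complete.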

[2] = biological target: HCV cap-dependent translation; experiment: In vitro translation assay, FF-HCV-Ren construct, cap-dependent (FF luciferase); type: biochemical, rabbit reticulocyte lysates
Method in brief: as §1

Compound 38 PK Study = type: in vivo, C57Bl/6J mice; conditions: male, C57Bl/6J, mouse, plasma
Experimental: Method: Fasted male C57Bl/6J mice were dosed with a 1 mg/mL solution of Compound 38 in 10% DMSO, 10% Tween-80 and 80% water by intravenous injection (2 mg/kg, as a 0.4 mg/mL solution), oral gavage (10 mg/kg as a 1 mg/mL solution) or intraperitoneal injection (10 mg/kg as a 1 mg/mL solution). Plasma was collected at various time points and analyzed by LC/MS/MS to determine compound levels.

eIF4F complex [3] = biological target: T1, eIF4F complex (Homo sapiens, UniProt Q04637); experiment: m7GTP pull-down assay, UACC903 melanoma cells; type: cell-based
T1 construct: PLX4032), or Compound 38; endogenous in cells; host or cells: A375, A375R, Lu1205R, WM793R melanoma cells
Experimental: (§2) As previously described (Dowling R J, et al. mTORC1-mediated cell proliferation, but not cell growth, controlled by the 4E-BPs. Science. 2010; 328:1172-6), cells growing in 100 mm plates were washed (cold PBS), collected, and lysed in 50 mM MOPS/KOH (7.4), 100 mM NaCl, 50 mM NaF, 2 mM EDTA, 2 mM EGTA, 1% NP40, 1% Na-DOC, 7 mM β-mercaptoethanol, protease inhibitors and phosphatase inhibitor cocktail (Roche). Lysates were incubated with m7-GDP-agarose beads (Jena Bioscience) for 20 minutes, washed 4 times with the washing buffer containing 50 mM MOPS/KOH (7.4), 100 mM NaCl, 50 mM NaF, 0.5 mM EDTA, 0.5 mM EGTA, 7 mM (3-mercaptoethanol, 0.5 mM PMSF, 1 mM Na3VO4 and 0.1 mM GTP, and bound proteins were eluted by boiling the beads in loading buffer. m7-GDP-agarose pulled down material was analyzed by Western blot analysis.
The dissociation of eIF4G1 from the eIF4F complex was determined using m^7GTP-agarose pull-down, which captures the eIF4F complex. […] Proteins prepared from UACC903 melanoma cells were treated with indicated Compound 38 concentrations and incubated with m^7GTP-agarose beads to capture the eIF4F complex. Shown is dose-dependent inhibition of eIF4G1 binding to eIF4E, concomitant with increased binding of inhibitory 4E-BP1 to eIF4E. Bottom, the total cell lysate.

eIF4F complex [4] = biological target: T1, eIF4F complex; experiment: m7GTP pull-down assay, BRAFi-sensitive and -resistant melanoma cells; type: cell-based
Experimental: as §2
As levels of the eIF4F complex inversely correlate with the effectiveness of various cancer therapies, the integrity of the eIF4F complex after treating melanoma cells with a combination of BRAFi vemurafenib (PLX4032) and Compound 38 was assessed. […] A375 and A375R (PLX4032-resistant) cells were treated with vehicle (DMSO), a BRAFi (vemurafenib; PLX4032), or Compound 38 at the indicated doses for 24 hours. Cell lysates ([…]) were subjected to m^7GTP pull-down. Amounts of the indicated proteins in input (5%) or pull-down (50%) samples were determined by Western blotting; 3-actin served as a loading control (input) and to exclude contamination (m^7GTP pull-down).

[5] = test system: UACC903 and A375 cell lines; experiment: Western blot validation of RPPA data; type: cell-based, human
Experimental: Cells were rinsed with PBS and lysed in culture plates with lysis buffer (50 mM Tris-HCl, pH 7.4, 150 mM NaCl, 1% NP-40, 1 mM EDTA, 10 μg/ml aprotinin, 1 μg/ml pepstatin A, 10 μg/ml leupeptin, 1 mM phenylmethylsulfonyl fluoride, and 1 mM sodium orthovanadate). Protein concentration was determined using Coomassie Plus Protein Assay Reagent (Thermo Scientific). Equal amounts of cell lysate proteins (50 μg) were resolved by SDS-PAGE and transferred to polyvinylidene difluoride membranes (PerkinElmer Life Sciences). Membranes were blocked with 5% BSA/TBST for 1 h and incubated with primary antibodies for 1 h at room temperate or overnight at 4° C., with shaking. Following three TBST washes, membranes were incubated for 1 h at room temperature with goat anti-rabbit Alexa Fluor 680 F(ab′)2 or goat anti-mouse IRDye 800 F(ab′)2 diluted 1:10,000. Bound antibodies were detected using the Odyssey Infrared Imaging System (LiCor Biosciences), or by exposing them to X-ray blue film.
A reverse phase protein array (RPPA) analysis of BRAF- and NRAS-mutant melanomas was performed to identify protein networks affected by Compound 38 (Table 4).

O=C(/C=C/c1cncc(F)c1)c1c(-c2ccccc2)c2cc(Cl)ccc2[nH]c1=O [Compound 38, 6-Chloro-3-[3-(5-fluoro-pyridin-3-yl)-acryloyl]-4-phenyl-1H-quinolin-2-one]
IC50 (A375): < 2000 nM
IC50 [1]: 2 to 10 µM
IC50 [2]: 2 to 10 µM
half-life (Compound 38 PK Study): 177 min
clearance (Compound 38 PK Study; IV 2 mg/kg): 67 mL/min/kg
bioavailability (Compound 38 PK Study; oral gavage 10 mg/kg): 20%
dissociation of eIF4G1 from the eIF4F complex (m7GTP-agarose pull-down) (eIF4F complex [3]): dissociated eIF4G1 from the eIF4E in a dose-dependent manner
dissociation of eIF4G1 from eIF4E in BRAFi-resistant cells (eIF4F complex [4]; A375R, Lu1205R and WM793R cells): significantly promoted a dose dependent dissociation of eIF4G1 from eIF4E
eIF4G1 association with eIF4E (eIF4F complex [4]; A375 and A375R, 24 hours): more robust effect
amount of eIF4G1 bound to eIF4E, Compound 38/BRAFi combination (eIF4F complex [4]; combination with BRAFi PLX4032, not seen following BRAFi treatment alone): decreased the amount of eIF4G1 bound to eIF4E
Western blot: phosphorylation of S6, mTOR, P70S6K, TSC2 and 4E-BP1 [5]: dose dependent inhibitory effects
